Data taken from article PMC4718913, “Characterization of a novel oxidase from Thelonectria discophora SANK 18292 involved in nectrisine biosynthesis” (AMB Express, 2016).

Columns and labels:
NecC [1] = biological target: T1, NecC (Thelonectria discophora, UniProt A0A0S3Q283); assay: LC-MS of nectrisine formed (NaBH4 reduction, NBD-F label); assay type: biochemical; set-up: full-length cDNA in pET21b, C-terminal His tag, E. coli BL21 (DE3), Ni column; about 62 kDa; conditions: 15 °C, 12.5 h
T1 sequence (A0A0S3Q283 1-558): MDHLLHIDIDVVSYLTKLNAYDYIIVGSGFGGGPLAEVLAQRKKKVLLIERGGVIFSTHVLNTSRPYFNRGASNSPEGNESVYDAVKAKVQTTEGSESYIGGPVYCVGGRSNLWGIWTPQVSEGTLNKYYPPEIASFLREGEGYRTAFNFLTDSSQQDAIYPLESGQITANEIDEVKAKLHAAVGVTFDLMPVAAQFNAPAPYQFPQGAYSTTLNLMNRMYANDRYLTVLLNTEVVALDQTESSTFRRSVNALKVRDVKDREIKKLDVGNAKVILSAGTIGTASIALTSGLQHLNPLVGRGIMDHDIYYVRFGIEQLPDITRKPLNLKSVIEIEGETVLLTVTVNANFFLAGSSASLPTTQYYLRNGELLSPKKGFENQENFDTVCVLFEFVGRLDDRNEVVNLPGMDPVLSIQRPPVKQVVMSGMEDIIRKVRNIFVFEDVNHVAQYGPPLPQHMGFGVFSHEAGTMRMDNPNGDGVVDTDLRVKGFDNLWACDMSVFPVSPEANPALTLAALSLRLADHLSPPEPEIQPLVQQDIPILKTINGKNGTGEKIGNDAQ

NecC [2] = biological target: T1, NecC; assay: H2O2 production, ABTS/peroxidase coupled, absorbance at […] nm; assay type: biochemical; set-up: native, purified from mycelium (ammonium sulfate, DEAE); FAD-like flavin; homo-oligomers about 8 mer to 16 mer; conditions: pH 7.0, 30 °C

Compound | LC-MS of nectrisine formed (NaBH4 reduction, NBD-F label) (NecC [1]) | H2O2 production, ABTS/peroxidase coupled, absorbance at 420 nm (NecC [2]; 1 mM substrate, O2 as acceptor) | H2O2 production, ABTS/peroxidase coupled, absorbance at 420 nm (NecC [2]; xylitol in place of 4-amino-4-deoxyarabinitol)
N[C@H](CO)[C@@H](O)[C@H](O)CO [compound 2, 4-amino-4-deoxyarabinitol] | the recombinant NecC had 4-amino-4-deoxyarabinitol oxidase activity | 4-amino-4-deoxyarabinitol was the preferred substrate | 
OC[C@@H](O)[C@H](O)[C@@H](O)CO [xylitol] |  |  | NecC also exhibited activity against some sugar alcohols
